Measured values: US20050215562A1, “Methods for treating protein aggregation disorders” (priority 2003, published 2005)

Tests used:
NAC peptide [1] = biological target: T1, NAC peptide (Homo sapiens, UniProt P37840); assay: Electron microscopy (EM) analysis of NAC fiber formation in the fibrillogenesis assay; format: biochemical; conditions: for EM Score: amount of fibers compared to NAC alone (100% fibers), 10 frames of a 300-mesh grid
T1 construct: a 35 amino acid peptide corresponding to residues 61 to 95 of the α-synuclein protein; made in house; host or cells: chemical solid-phase peptide synthesis (Fmoc), not expressed
Description: (§1) Fibrillogenesis assays were employed to identify test compounds that inhibit NAC's ability to assemble into fibers. Following removal of HFIP by evaporation under N2 gas, 20 μM NAC peptide is incubated in the assay buffer (0.02M Tris, 0.15 M NaCl, 0.005% NaN3, 100 uM EDTA) at 37° C. in a Perkin-Elmer HTS 7000 plus microplate reader with shaking for 1 minute every twenty minutes. The presence of fibers can be monitored by three different methods.
(§2) The following assays were set up in clear polystyrene 96 well microplates by combining 125 μL of 40 μM NAC peptide with 125 μL of 200 μM test compound in 0.02M Tris, 0.15 M NaCl, 0.005% NaN3, […]. The microplates were sealed with a plastic sheet and incubated at 37° C. in a Perkin-Elmer HTS 7000 microplate reader with shaking for 1 minute, every 20 minutes. • Thioflavin T Analysis. To perform this assay 5 μM Thioflavin T is added to the NAC assembly conditions described above. The fluorescence is measured at 430 excitation/485 emission every twenty minutes with a Perkin-Elmer HTS microplate reader for the duration of the assay. […] This assay allows for the identification of compounds that can inhibit this increase in fluorescence upon incubation. • Turbidity Analysis. Alternatively, NAC peptide that has been incubated with test compounds in the appropriate assembly conditions can be analyzed by reading the absorbance at 405 nm to follow the turbidity of the solution which is also an indication of the formation of aggregates. • Circular Dichroism (CD) Analysis. […] This assay allows for the identification of compounds that can prevent NAC from adopting a β-sheet/β-turn conformation upon incubation. • At the appropriate time point, during the incubation, the test solutions were transferred to 0.1-cm path length quartz cuvettes and scanned by CD spectroscopy between 190 and 260 nm, with a resolution of 0.1 nm and a bandwidth of 1 nm using a Jasco J-715 spectropolarimeter at 37° C. […] At the time point at which CD scans are performed a 3 μl aliquot is removed from the sample, spotted onto a Formvar grid and then negatively stained with 4% uranyl acetate. The grids were examined for the presence of fibrils and amorphous aggregates using a JOEL 2000 transmission electron microscope at a 25,000 × magnification. This assay can be used to confirm the absence of fibers in the presence of compounds which inhibit NAC assembly by ThT and CD. The final results were obtained by averaging 10 complete sectors.
Analysis by Electron Microscopy: The fibrillogenesis assays performed for CD analysis were also spotted for EM. The electron micrographs are visually examined and a score is assigned as follows. Briefly, 10 representative frames from a 300-mesh grid are analyzed and given a score representing the amount of fibers formed in the sample as compared to a micrograph with NAC alone without a test compound (100% fibers). A score was assigned based on this analysis on a scale from 0% to 100% fibers: (−) indicates an observation of less than about 25% fibers; (+) indicates about 25% fibers; (++) about 50% fibers; (+++) indicates about 75% fibers; and (++++) 100% fibers. […]

NAC peptide [2] = biological target: T1, NAC peptide; assay: Circular dichroism (CD) analysis of NAC peptide conformation after incubation with test compounds (fibrillogenesis assay); format: biochemical; design: key to CD Result (NAC conformation observed): Random Coil: signifies that the NAC in the sample was observed to have been maintained in its original random coil conformation indicating that the compound coincubated with NAC is active; signifies that the compound was not able to prevent the shift from random coil to β-sheet; β-sheet/β-turn: signifies that the compound was not able to prevent the shift from random coil to β-sheet; Transition: signifies that the NAC was observed to be in the process of converting from random coil to β-sheet indicating that the compound was able to slow down the conformational change and indicates activity; conditions: for CD Result (NAC conformation observed): 125 μL of 40 μM NAC peptide with 125 μL of 200 μM test compound, pH 7.4, 37° C., conformations over repeated trials; for Activity (CD): active if it prevents the transition to β-turn/β-sheet in 50% or more of the trials; for Activity: active trials / trials: number of CD trials in which transition to β-turn/β-sheet was prevented, over trials run
Description: 2 mM Solutions were prepared in TBSA buffer (Tris 0.02 M, NaCl 0.15 M, NaN3 0.005%, pH 7.4) and stored at 4° C. For the assays, compounds were diluted to the desired concentrations in TBSAE buffer (Tris 0.02 M, NaCl 0.15 M, NaN3 0.005%, EDTA 100 μM, pH 7.4) and combined with the NAC peptides.
as §1, §2
For compounds that have been tested multiple times, a compound is classified as active if it prevents the transition to β-turn/β-sheet in 50% or more of the trials.

NAC peptide [3] = biological target: T1, NAC peptide; assay: Binding of compounds to NAC peptide by electrospray mass spectrometry; conditions: area of bound NAC-compound complex peaks divided by area of unbound NAC peaks; 5:1 compound:NAC, pH 7.4, 6.6% EtOH
Description: The ability of the compounds of the present invention to bind to NAC peptide in aqueous solution was evaluated. The binding ability correlates to the intensities of the peptide-compound complex peaks observed by the Electrospray Mass Spectrum. Millipore distilled deionized water was used to prepare all aqueous solutions. For pH determination a Beckman (Φ36 pH meter fitted with a Corning Semi-Micro Combination pH Electrode was employed.
The optimal cone voltage was determined to be 20V.
Mass spectrometry: Mass spectrometric analysis was performed using a Waters ZQ 4000 mass spectrometer equipped with a Waters 2795 sample manager. MassLynx 4.0 (earlier by MassLynx 3.5) was used for data processing and analysis. Test compounds were mixed with disaggregated peptides in aqueous media (6.6% EtOH) at a 5:1 ratio (20 μM NAC: 100 μM of test compound or 40 μM NAC : 200 μM of test compound). The pH of the mixture was adjusted to 7.4 (±0.2) using 0.1% NaOH (3-5 μL). Periodically, NAC peptide solution at 20 μM or 40 μM was also prepared in the same fashion and run as control. The spectra were obtained by introducing the solutions to the electrospray source by direct infusion using a syringe pump at a flow rate of 25 μl/min, and scanning from 100 to 2100 Da in the positive mode. The scan time was 0.9 sec per scan with an inter-scan delay of 0.1 sec and the run time was 5 min for each sample. All the mass spectra were sum of 300 scans. The desolvation and source temperature was 70° C. and the cone and capillary voltage were maintained at 20 V and 3.2 kV respectively.
The total area under the peaks for the bound NAC-compound complex divided by total area under the peaks for unbound NAC was determined for each compound tested.

| Compound | Activity (EM) (NAC peptide [1]) | EM Score (NAC peptide [1]) | Effect on NAC conformation by CD (NAC peptide [2]; NAC incubated in presence of heparin, minimum at 218 nm typical of β-sheet) | Appearance of NAC fibers by EM (NAC peptide [1]; NAC in the presence of heparin) | CD Result (NAC conformation observed) (NAC peptide [2]) | Activity (CD) (NAC peptide [2]) | Activity: active trials / trials (NAC peptide [2]) | Binding Strength (NAC peptide [3]) |
| --- | --- | --- | --- | --- | --- | --- | --- | --- |
| O=S(=O)(O)CC(O)CNC1CCCCC1 (stereo not drawn) [drawing 64] | No | +++ ((+++) indicates about 75% fibers) |  |  |  |  |  |  |
| CC[N+](CC)(CC)CCCS(=O)(=O)[O-] [drawing 62] | Yes | AA+ |  |  |  |  |  |  |
| NCCCCS(=O)(=O)O [drawing 63] | Yes | AA+ |  |  |  |  |  |  |
| heparin [reference compound] |  |  | promotes a conformational change | longer and more interwined fibers |  |  |  |  |
| O=S(=O)(O)CCC[N+]12CCC(CC1)CC2 [drawing 65] | Yes | + ((+) indicates about 25% fibers) |  |  |  |  |  |  |
| CC[N+](CC)(CC)CCCS(=O)(=O)[O-] [compound 16] |  |  |  |  | Random Coil | Yes | 3/3 | Indeterminant |
| CC(=O)C1(c2ccccc2)CCN(CCCS(=O)(=O)O)CC1 [compound 15] |  |  |  |  | β-sheet/β- turn Random Coil | No | ¼ | +++ (Strong; when the total binding is 120% and higher) |
| O=S(=O)(O)CCCN1CCc2c([nH]c3ccccc23)C1 [compound 13] |  |  |  |  | Random coil Transition | Yes | 3/3 | +++ (Strong; when the total binding is 120% and higher) |
| CCCCCCCCCCCCS(C)(C)CCCS(C)(=O)=O [compound 9] |  |  |  |  | Random Coil | Yes | 4/4 | − (None; when the total binding is between 30% and 0%) |
| NCCCOS(=O)(=O)O [compound 4] |  |  |  |  | β-turn | No | 0/2 | ++ (Moderate; when the total binding is between 120% and 70%) |
